We go through 47 molecules from patent US12552748B2, “Pyridine (thio)amides as fungicidal compounds” (Bayer Aktiengesellschaft, priority 2020, dated 2026).

This series can be described thus: physchem. Format: physicochemical. The procedure: Measurement of Log P values as provided herein was performed according to EEC directive 79/831 Annex V.A8 by HPLC (High Performance Liquid Chromatography) on reversed phase columns with the following methods: […] If more than one Log P value is available within the same method, all the values are given and separated by “+”. Calibration was done with straight-chain alkan2-ones (with 3 to 16 carbon atoms) with known Log P values (measurement of Log P values using retention times with linear interpolation between successive alkanones). Lambda-max-values were determined using UV-spectra from 200 nm to 400 nm and the peak values of the chromatographic signals

Marks after values point to notes of the source that are not given here.

`O=C(O)c1cc(Cl)nc(F)c1Oc1cccc(C(F)(F)F)c1` [Compound 1-014, 6-chloro-2-fluoro-3-[3-(trifluoromethyl)phenoxy]pyridine-4-carboxylic acid] registered a chromatographic logP of 2.95. Consider `N#Cc1nc(Cl)cc(C(=O)O)c1Oc1cccc(C(F)(F)F)c1` [Compound 1-016], for which the LogP is 2.40^[a]. `COc1cc(C(=O)O)c(Oc2cccc(C(F)(F)F)c2)cn1` [Compound 1-017]: the LogP is 2.86^[a]. Take `COc1cc(C(=O)NCCc2ccc(C)cc2C)c(Oc2cccc(C(F)(F)F)c2)cn1` [Compound 1-160]: the LogP was 4.69^[a]. With `Cc1ccc(CCNC(=O)c2cc(Cl)ncc2Br)c(C)c1` [Compound 3-001, 5-bromo-2-chloro-N-[2-(2,4-dimethylphenyl)ethyl]pyridine-4-carboxamide], the chromatographic logP amounted to 3.4. Regarding `Cc1ccc(CCNC(=O)c2cc(C(F)(F)F)ncc2Br)c(C)c1` [Compound 3-002], the LogP is 3.77^[a]. For `Cc1ccc(C(F)(F)CNC(=O)c2cc(Cl)ncc2Br)c(C)c1` [Compound 3-003], the LogP is 3.57^[a].

`O=C(NCC(F)(F)c1ccc(Br)cc1Cl)c1cc(Cl)ncc1Br` [Compound 3-004]: the LogP is 3.68^[a].

`Cc1ccc(C(F)(F)CNC(=O)c2c(Br)cnc(Cl)c2F)c(C)c1` [Compound 3-005, 5-bromo-2-chloro-N-[2-(2,4-dimethylphenyl)-2,2-difluoro-ethyl]-3-fluoro-pyridine-4-carboxamide]: the chromatographic logP amounted to 3.81. Regarding `Cc1ccc(C(F)(F)CNC(=O)c2c(Br)cnc(Cl)c2Cl)c(C)c1` [Compound 3-006], the LogP is 3.98^[a]. With `COc1c(Cl)ncc(Br)c1C(=O)NCC(F)(F)c1ccc(C)cc1C` [Compound 3-007], the LogP was 3.75^[a]. Take `O=C(NCC(F)(F)c1ccc(Br)cc1Cl)c1cc(Cl)ncc1Oc1cccc(C(F)(F)F)c1` [Compound I-001]: the LogP is 5.00^[a].

Take `Cc1ccc(CCNC(=O)c2cc(Cl)ncc2Oc2cccc(C(F)(F)F)c2)c(C)c1` [Compound I-002]: the LogP is 4.73^[a]. Regarding `COc1cc(C(=O)NCC(F)(F)c2ccc(Br)cc2Cl)c(Oc2cccc(C(F)(F)F)c2)cn1` [Compound I-003], the LogP was 4.95^[a]. For the molecule `COc1cc(C(=O)NCC(F)(F)c2ccc(C)cc2C)c(Oc2cccc(C(F)(F)F)c2)cn1` [Compound I-004], the LogP was 4.77^[a].

With `Cc1ccc(C(F)(F)CNC(=O)c2cc(Cl)ncc2Oc2cccc(C(F)(F)F)c2)c(C)c1` [Compound I-005], the LogP was 4.77^[a]. `COc1ccc(CCNC(=O)c2cc(Cl)ncc2Oc2cccc(C(F)(F)F)c2)c(OC)c1` [Compound I-008]: the LogP is 4.06^[a]. For `O=C(NCC(F)(F)c1ccc(Cl)cc1Cl)c1cc(Cl)ncc1Oc1cccc(C(F)(F)F)c1` [Compound I-009], the LogP is 4.82^[a]. In the case of `O=C(NCC(F)c1ccc(Cl)cc1Cl)c1cc(Cl)ncc1Oc1cccc(C(F)(F)F)c1` (centres unmarked) [Compound I-010], the LogP is 4.74^[a].

As for `O=C(NCC(F)(F)c1ccc(Cl)cc1)c1cc(Cl)ncc1Oc1cccc(C(F)(F)F)c1` [Compound I-011], the LogP was 4.41^[a]. For the molecule `O=C(NCC(F)c1ccc(Br)cc1Cl)c1cc(Cl)ncc1Oc1cccc(C(F)(F)F)c1` (centres unmarked) [Compound I-012], the LogP was 4.85^[a]. Consider `CC(=O)c1cccc(Oc2cnc(Cl)cc2C(=O)NCCc2ccc(C)cc2C)c1` [Compound I-014], for which the LogP is 3.87^[a]. Consider `Cc1ccc(C(F)(F)CNC(=O)c2ccncc2Oc2cccc(C(F)(F)F)c2)c(C)c1` [Compound I-015], for which the LogP is 3.84^[a].

`Cc1ccc(CONC(=O)c2cc(Cl)ncc2Oc2cccc(C(F)(F)F)c2)c(C)c1` [Compound I-017]: the LogP was 4.26^[a]. On the same count and under the same terms, in the case of `Cc1cc(C(=O)NC(C)c2cn(C)c3ccccc23)c(Oc2cccc(C(F)(F)F)c2)cn1` (centres unmarked) [Compound I-020] it was 3.64^[a]; in that of `CC(NC(=O)c1cc(Cl)ncc1Oc1cccc(C(F)(F)F)c1)c1cn(C)c2cc(Cl)ccc12` (centres unmarked) [Compound I-021], 4.68^[a]; in that of `CCc1cc(C(=O)NCC(F)c2ccc(F)cc2F)c(Oc2cccc(C(F)(F)F)c2)cn1` (centres unmarked) [Compound I-022], 4.66^[a]. Take `Cc1ccc(C(F)(F)CNC(=O)c2cc(Cl)ncc2Oc2cccc(C(F)(F)F)c2C)c(C)c1` [Compound I-023]: the LogP is 5.14^[a]. Turning to `O=C(NCC(F)c1ccc(Cl)cc1Cl)c1cc(C2CC2)ncc1Oc1cccc(C(F)(F)F)c1` (centres unmarked) [Compound I-024], the LogP was 4.96^[a]. Regarding `Cc1ccc(CCNC(=O)c2cc(Cl)ncc2Oc2cccc(OC(F)(F)F)c2)c(C)c1` [Compound I-025], the LogP is 4.97^[a]. On to `CCc1cc(C(=O)NCC(F)(F)c2ccc(C)cc2C)c(Oc2cccc(C(F)(F)F)c2)cn1` [Compound I-026], for which the LogP was 4.58^[a]. The same measure, in the same setting: for `Cc1ccc(CCNC(=O)c2cc(C)ncc2Oc2cccc(C(F)(F)F)c2)c(C)c1` [Compound I-028] the value was 4.03^[a]. Same read-out and setting: in the case of `C#Cc1ccc(C(F)(F)CNC(=O)c2cc(Cl)ncc2Oc2cccc(C(F)(F)F)c2)c(Cl)c1` [Compound I-029] it was 4.53^[a]. The same measure, in the same setting: in the case of `CCc1cc(C(=O)NCCc2ccc(C)cc2C)c(Oc2cccc(C(F)(F)F)c2)cn1` [Compound I-030] it was 4.49^[a]; in that of `C#Cc1cc(C(=O)NC(C)c2cn(C)c3cc(Cl)ccc23)c(Oc2cccc(C(F)(F)F)c2)cn1` (centres unmarked) [Compound I-031], 4.27^[a].

For `C#Cc1cc(C(=O)NCC(F)(F)c2ccc(C)cc2C)c(Oc2cccc(C(F)(F)F)c2)cn1` [Compound I-032], the LogP was 4.39^[a]. For `Cc1ccc(C(F)(F)CNC(=O)c2cc(C)ncc2Oc2cccc(C(F)(F)F)c2)c(Cl)c1` [Compound I-033], the LogP is 4.19^[a]. Same read-out and setting: for `Cc1ccc(C(F)(F)CNC(=O)c2cc(Cl)ncc2Oc2cccc(Cl)c2)c(C)c1` [Compound I-036] the value was 4.74^[a]; for `Cc1ccc(C(F)(F)CNC(=O)c2cc(Cl)ncc2Oc2cccc(C(F)F)c2)c(C)c1` [Compound I-038], 4.35^[a].

As for `Cc1ccc(CCNC(=O)c2cc(Cl)ncc2Oc2cccc(C(F)F)c2)c(C)c1` [Compound I-039], the LogP is 4.30^[a]. As for `COc1cccc(Oc2cnc(Cl)cc2C(=O)NCC(F)(F)c2ccc(C)cc2C)c1` [Compound I-042], the LogP was 4.46^[a]. In the case of `Cc1cccc(Oc2cnc(Cl)cc2C(=O)NCC(F)(F)c2ccc(C)cc2C)c1` [Compound I-044], the LogP was 4.85^[a].

With `Cc1cccc(Oc2cnc(Cl)cc2C(=O)NCCc2ccc(C)cc2C)c1` [Compound I-045], the LogP was 4.84^[a]. In the case of `O=C(NCC(F)(F)c1ccc(Br)cc1Cl)c1c(Oc2cccc(C(F)(F)F)c2)cnc(Cl)c1I` [Compound I-046], the LogP is 4.96^[a].

As to `Cc1cccc(Oc2cnc(C)cc2C(=O)NCC(F)(F)c2ccc(C)cc2C)c1` [Compound I-047], the LogP is 4.08^[a].

Turning to `COc1cccc(Oc2cnc(Cl)cc2C(=O)NCC(F)(F)c2ccc(C)cc2Cl)c1` [Compound I-048], the LogP was 3.67^[a]. As for `Cc1ccc(C(F)(F)CNC(=O)c2cc(C)ncc2Oc2cccc(C(F)F)c2)c(C)c1` [Compound I-049], the LogP was 3.73^[a].

The term chromatographic logP denotes lipophilicity estimated from chromatographic retention. A high value points to higher lipophilicity.
